Measurements: US10329315B2, “Glycosphingolipids and methods of use thereof” (The Brigham and Women's Hospital, Inc., priority 2012, dated 2019)

System: iNKT hybridoma 24.7
Assay: iNKT cell activation in co-culture of BMDCs and iNKT hybridoma 24.7, IL-2 by ELISA
Format: cell-based
Conditions: incubated with BMDCs 4 hours, then iNKT hybridoma 24.7 for 24 hours
Method: Experiments were performed to determine whether fractions of B. fragilis sphingolipids are immunostimulatory (agonists) to iNKT cells. Lipid fractions were extracted from BF membranes, incubated with bone marrow dendritic cells (BMDCs) for 4 hours, and then co-incubated with iNKT hybridoma 24.7 for 24 hours. IL-2 was measured by ELISA as a readout of iNKT cell activation. KRN7000 refers to the known immunostimulatory alpha-GC. Cer-SL refers to the ceramide sphingolipid fraction. PE-SL refers to the phosphoethanolamine sphingolipid fraction. GL-SL refers to the glycosphingolipid fraction. C17 minor refers to alpha-GC having a C17 ceramide chain length. […] As expected, KRN7000 was stimulatory.
Further studies confirmed that alpha-GC-Bf717 was detectable only in fecal samples from BFWT mice and not in samples from BFΔSPT mice. The estimated yield of alpha-GC-Bf717 was about 1 ng per gram of fecal pellet. To confirm that alpha-GC-Bf717 had antagonistic activity, co-cultures similar to those described above for bulk GL-SL fractions were performed.

CCCCCCCCCCCCCCCCCCCCCCCCCC(=O)N[C@@H](CO[C@H]1O[C@H](CO)[C@H](O)[C@H](O)[C@H]1O)[C@H](O)[C@H](O)CCCCCCCCCCCCCC [KRN7000]
iNKT cell activation (IL-2): stimulatory
